Literature values as cited in patent publication US7601870B2, “Substituted aniline derivatives” (priority 2004, dated 2009).

Experiments:
[1] = tested on: animal models of ethanol withdrawal syndrome; conditions: in vivo
[2] = tested on: animal models of anxiety-like behaviour; conditions: in vivo
[3] = tested on: kainic acid-induced status epilepticus; conditions: rat
[4] = tested on: electrically induced seizures, seizures induced chemically by pentylenetetrazole, picrotoxin and NMDA, DBA/2 mouse; conditions: oral and intraperitoneal administration in rats and mice
[5] = tested on: seizures in epileptic patients; conditions: clinical trials
[6] = tested on: hippocampal kindling; conditions: rat
[7] = tested on: K(+) current in neuronal cells
[8] = tested on: amygdala kindling model of complex partial seizures; conditions: in vivo
[9] = tested on: animal models of neuropathic pain; conditions: in vivo

Question: With NCC1(CC(=O)O)CCCCC1 [gabapentin] as the compound, how does the “effect in ethanol withdrawal syndrome models” value [1] read?
Answer: The value was “very effective”.

Question: With CCOC(=O)Nc1ccc(NCc2ccc(F)cc2)cc1N [Retigabine, N-(2-amino-4-(4-fluorobenzylamino)-phenyl) carbamic acid ethyl ester] as the compound, how does the “activity in anxiety-like behaviour models” value [2] read?
Answer: Its value is “active”.

Question: What about the “limbic neurodegeneration and markers of apoptosis” value [3] of the same compound?
Answer: Its value is “prevent limbic neurodegeneration and the expression of markers of apoptosis”.

Question: What about the anticonvulsant activity [4] of the same compound?
Answer: The anticonvulsant activity was “active”.

Question: What about the incidence of seizures [5] of the same compound?
Answer: The incidence of seizures was “effectiveness in reducing the incidence of seizures”.

Question: What about the “progression of hippocampal kindling” value [6] of the same compound?
Answer: Its value is “delay the progression of hippocampal kindling”.

Question: What about the “activation of K(+) current” value [7] of the same compound?
Answer: The value was “activate a K(+) current”.

Question: And the “activity in amygdala kindling model” value [8]?
Answer: Its value is “active”.

Question: And the “effect in neuropathic pain models” value [9]?
Answer: The value was “beneficial”.
